Reference: paper PMC10958225, “Therapeutic potential of orally applied KB-R7943 in streptozotocin-induced neuropathy in rats” (Heliyon, 2024)
Like-named read-outs stand apart in the source and are kept apart here.

Assay: Pilot PK study of orally applied KB-R7943 in control and STZ-induced diabetic rats (LC-MS/MS)
Format: in vivo, rat
Details: for AUC(0-inf) / Cmax / Tmax / half-life / AUC(0-t) / Kp: Wistar, rat, po, 10 mg/kg; for AUC(0-t): read-out: AUC(0-24); for Kp: read-out: AUC(0-24) tissue/AUC (0-24) plasma; for Vd (volume of distribution): dose/(λ × AUC 0–24); for Cl (clearance): dose/AUC0-24
Method: Chromatographic separation was achieved by injecting 5 μL of the sample extract (on each instrument) into a Zorbax SB-C8 150 mm × 4.6 mm × 1.8 μm column. The mobile phase was a mixture in a gradient mode of two components: solvent A - 0.1% formic acid in water and solvent B - 0.1% formic acid in acetonitrile. The flow rate was set to 0.400 ml/min with the following gradient program: 0.0–0.5 min 90% solvent A, 0.5–10.0 min 10% solvent A, 10.0–12.0 min 10% solvent A, 12.0–12.1 min 90% solvent A, 12.1–13.0 min 90% solvent A. Mass spectrometric detection was performed with positive electrospray (ESI(+)). Analytes were determined by selecting two characteristic target reactions (MRM transitions) and the retention time of the analytes. The following MS parameters were kept constant during the analysis: nebulizer voltage 4800 V for positive ionization. The temperature of the cone was set at 300 °C, the temperature of the heated probe at 400 °C, the gas flowed through the nebulizer at 3 l/min, and the flow rate of the drying gas was 10 l/min. Two product ions and one precursor ion were selected for analyte identification (Table 1).
200 mg of the sample (plasma, urine, homogenate) was transferred into 1.5 ml Eppendorf tubes, 10 μl of the internal standard solution was added and thoroughly mixed using a rotary shaker, and then 1 ml of the extracting solution of 0.1% formic acid in acetonitrile, was added. After ultrasonic stirring for 15 min, the tubes were centrifuged at 14,000 rpm for 5 min. Approximately 1 ml of the supernatant was decanted and transferred to a 15 ml Falcon plastic tube, 1 ml of the extracting solution (0.1% formic acid in acetonitrite) was added to the precipitate, and the extraction procedure was repeated. […] successive extracts were combined, 3 ml of hexane was added, and mixed on a rotary shaker for 5 min, after which the top layer of hexane was separated, and the purification procedure was repeated 2 more times. The purified extract was transferred to a 5 ml glass vial and evaporated to dryness in an FMS Super Vap 24 at 45 °C under nitrogen flow. 200 μL of the extractant was added to the vials, and the remains of the analyte were washed off the walls of the vial by stirring the solution on a rotary shaker for 3 min, after which the resulting solution was transferred into glass vials for HPLC analysis. With each batch of samples, appropriate matrix controls were prepared and extracted with the addition of KB- R7943 at 0, 0.1, 1, 10, 100, 1000, 5000, 20,000, and 200,000 ng/g and extracted simultaneously with the samples (Fig. 2).
Experiment 1 (Fig. 3A) was designed as a pilot PK study to assess the body distribution of orally applied KB-R7943 and to inform about some important PK parameters. Two groups, i.e., controls (n = 9) and STZ-induced diabetic models (n = 9), were included in the experiment. Each rat was placed in an individual metabolic cage and kept there until the administration of the drug. The KB-R7943 was applied once, p.o., in a 10 mg/kg dose with gavage. OraPlus was a vehiculum (16 gauge feeding tube 10 ml/kg). After applying of the KB-R7943, each rat was returned to their cage, and blood and urine samples were collected at 1st, 6th, and 24th hours (different n = 3 at each time-point). Metabolic cages were specially designed to separate feces from urine through the funnel, and a separation cone was used.
Blood samples were collected in EDTA-containing tubes with cardiopunction under ketamine-xylasine anesthesia (100 mg/kg and 10 mg/kg, respectively). After 1 h incubation (+4/+8 °C), blood was centrifugated 1000 g, and the plasma was used for the analysis after that.
Isolation of tissue samples of the heart and parts of the brain was performed after perfusion of the upper body of the rat with a phosphate-buffered saline (PBS) using a perfusion pump (BT100-2J LongerPump, Halma PLC, UK). Homogenates were prepared as 1:4 ratios (v/v) with PBS and stored at −80 °C until analysis. […]

[1] = AUC tissue/AUC plasma, 10 mg/kg p.o. once
[2] = cortex, STZ-diabetic rats, 10 mg/kg p.o. once
[3] = cortex, control rats, 10 mg/kg p.o. once
[4] = cortex, cortex, STZ-diabetic rats, 10 mg/kg p.o. once
[5] = cortex, cortex, control rats, 10 mg/kg p.o. once
[6] = heart, STZ-diabetic rats, 10 mg/kg p.o. once
[7] = heart, control rats, 10 mg/kg p.o. once
[8] = hippocampus, STZ-diabetic rats, 10 mg/kg p.o. once
[9] = hippocampus, control rats, 10 mg/kg p.o. once
[10] = hippocampus, hippocampus, STZ-diabetic rats, 10 mg/kg p.o. once
[11] = hippocampus, hippocampus, control rats, 10 mg/kg p.o. once
[12] = hypothalamus, STZ-diabetic rats, 10 mg/kg p.o. once
[13] = hypothalamus, control rats, 10 mg/kg p.o. once
[14] = hypothalamus, hypothalamus, STZ-diabetic rats, 10 mg/kg p.o. once
[15] = hypothalamus, hypothalamus, control rats, 10 mg/kg p.o. once
[16] = plasma, STZ-diabetic rats, 10 mg/kg p.o. once
[17] = plasma, control rats, 10 mg/kg p.o. once
[18] = urine, STZ-diabetic rats, 10 mg/kg p.o. once
[19] = urine, control rats, 10 mg/kg p.o. once

Q: With `N=C(N)SCCc1ccc(OCc2ccc([N+](=O)[O-])cc2)cc1` [KB-R7943, [(2-{4-[(4-nitrophenyl)methoxy]phenyl}ethyl)sulfanyl]methanimidamide] as the molecule, how does the “heart penetration, times higher in control group vs. diabetic rats” value [1] read?
A: 1.2 times

Q: And the “hippocampus penetration, times higher in control group vs. diabetic rats” value [1]?
A: over 2.5 times

Q: And the AUC(0-inf) [2]?
A: 1000 ng·h/mL

Q: And the Cmax [2]?
A: 103 ng/mL

Q: What about the Tmax [2] of the same molecule?
A: 1 h

Q: What about the half-life [2] of the same molecule?
A: 7.7 h

Q: What about the Cmax [3] of the same molecule?
A: 11.5 ng/mL

Q: And the Tmax [3]?
A: 24 h

Q: And the AUC(0-t) [4]?
A: 880 ng·h/mL

Q: And the Kp [4]?
A: 14.5

Q: What about the AUC(0-t) [5] of the same molecule?
A: 232 ng·h/mL

Q: What about the Kp [5] of the same molecule?
A: 14.2

Q: What about the Cmax [6] of the same molecule?
A: 5600 ng/mL

Q: And the Tmax [6]?
A: 1 h

Q: And the half-life [6]?
A: 5.7 h

Q: And the Cmax [7]?
A: 893 ng/mL

Q: And the Tmax [7]?
A: 1 h

Q: What about the half-life [7] of the same molecule?
A: 7 h

Q: What about the Kp (heart, heart, STZ-diabetic rats, 10 mg/kg p.o. once) of the same molecule?
A: 499

Q: What about the Kp (heart, heart, control rats, 10 mg/kg p.o. once) of the same molecule?
A: 622

Q: And the AUC(0-inf) [8]?
A: 865 ng·h/mL

Q: And the Cmax [8]?
A: 57 ng/mL

Q: What about the Tmax [8] of the same molecule?
A: 1 h

Q: What about the half-life [8] of the same molecule?
A: 11.6 h

Q: What about the Cmax [9] of the same molecule?
A: 39.6 ng/mL

Q: And the Tmax [9]?
A: 24 h

Q: And the AUC(0-t) [10]?
A: 645 ng·h/mL

Q: What about the Kp [10] of the same molecule?
A: 10.7

Q: What about the AUC(0-t) [11] of the same molecule?
A: 449 ng·h/mL

Q: What about the Kp [11] of the same molecule?
A: 27.4

Q: What about the AUC(0-inf) [12] of the same molecule?
A: 1020 ng·h/mL

Q: And the Cmax [12]?
A: 75 ng/mL

Q: And the Tmax [12]?
A: 1 h

Q: And the half-life [12]?
A: 13.7 h

Q: And the Cmax [13]?
A: 9.5 ng/mL

Q: And the Tmax [13]?
A: 24 h

Q: What about the AUC(0-t) [14] of the same molecule?
A: 668 ng·h/mL

Q: And the Kp [14]?
A: 11

Q: What about the AUC(0-t) [15] of the same molecule?
A: 215 ng·h/mL

Q: What about the Kp [15] of the same molecule?
A: 13.1

Q: What about the AUC(0-inf) [16] of the same molecule?
A: 61.7 ng·h/mL

Q: What about the Cmax [16] of the same molecule?
A: 11 ng/mL

Q: What about the Tmax [16] of the same molecule?
A: 1 h

Q: And the half-life [16]?
A: 4.2 h

Q: What about the AUC(0-inf) [17] of the same molecule?
A: 17.7 ng·h/mL

Q: And the Cmax [17]?
A: 3.2 ng/mL

Q: What about the Tmax [17] of the same molecule?
A: 1 h

Q: What about the half-life [17] of the same molecule?
A: 6.1 h

Q: What about the AUC(0-t) (plasma, plasma, STZ-diabetic rats, 10 mg/kg p.o. once) of the same molecule?
A: 60.6 ng·h/mL

Q: What about the AUC(0-t) (plasma, plasma, control rats, 10 mg/kg p.o. once) of the same molecule?
A: 16.4 ng·h/mL

Q: And the Tmax (plasma, systemic circulation after oral application, rats)?
A: ~1 h

Q: And the Cmax [18]?
A: 59.3 ng/mL

Q: What about the Tmax [18] of the same molecule?
A: 24 h

Q: And the Cmax [19]?
A: 47.2 ng/mL

Q: What about the Tmax [19] of the same molecule?
A: 24 h

Q: What about the AUC(0-t) (urine, urine, STZ-diabetic rats, 10 mg/kg p.o. once) of the same molecule?
A: 974 ng·h/mL

Q: And the AUC(0-t) (urine, urine, control rats, 10 mg/kg p.o. once)?
A: 727 ng·h/mL

Q: What about the “β of linear regression Ln(Conc) vs time” value (cortex concentration, controls, 10 mg/kg p.o. once) of the same molecule?
A: β = 0.015, p = 0.703

Q: What about the “β of linear regression Ln(Conc) vs time” value (cortex concentration, diabetes, 10 mg/kg p.o. once) of the same molecule?
A: β = −0.075, p = 0.008

Q: And the “%Extrap” value [2]?
A: 12,20%

Q: And the “ƛ (terminal slope)” value [2]?
A: −0.07

Q: And the “%Extrap” value [3]?
A: 142,00%

Q: And the “ƛ (terminal slope)” value [3]?
A: 0.02

Q: What about the “β of linear regression Ln(Conc) vs time” value (heart concentration, controls, 10 mg/kg p.o. once) of the same molecule?
A: β = −0.107, p = 0.003

Q: And the “β of linear regression Ln(Conc) vs time” value (heart concentration, diabetes, 10 mg/kg p.o. once)?
A: β = −0.125, p = 0.026

Q: And the “%Extrap” value [6]?
A: 6,20%

Q: And the “ƛ (terminal slope)” value [6]?
A: −0.12

Q: And the “%Extrap” value [7]?
A: 8,4%

Q: And the “ƛ (terminal slope)” value [7]?
A: −0.11

Q: And the “β of linear regression Ln(Conc) vs time” value (hippocampus concentration, controls, 10 mg/kg p.o. once)?
A: β = −0.037, p = 0.283

Q: What about the “β of linear regression Ln(Conc) vs time” value (hippocampus concentration, diabetes, 10 mg/kg p.o. once) of the same molecule?
A: β = −0.048, p = 0.097

Q: And the “%Extrap” value [8]?
A: 25,40%

Q: What about the “ƛ (terminal slope)” value [8] of the same molecule?
A: −0.05

Q: And the “ƛ (terminal slope)” value [9]?
A: 0.04

Q: What about the “β of linear regression Ln(Conc) vs time” value (hypothalamus concentration, controls, 10 mg/kg p.o. once) of the same molecule?
A: β = −0.007, p = 0.830

Q: What about the “β of linear regression Ln(Conc) vs time” value (hypothalamus concentration, diabetes, 10 mg/kg p.o. once) of the same molecule?
A: β = −0.045, p = 0.127

Q: What about the “%Extrap” value [12] of the same molecule?
A: 34,50%

Q: What about the “ƛ (terminal slope)” value [12] of the same molecule?
A: −0.04

Q: What about the “%Extrap” value [13] of the same molecule?
A: 111,50%

Q: And the “ƛ (terminal slope)” value [13]?
A: 0.01

Q: What about the “β of linear regression Ln(Conc) vs time” value (plasma concentration, controls, 10 mg/kg p.o. once) of the same molecule?
A: β = 0.094, p = 0.036

Q: What about the “β of linear regression Ln(Conc) vs time” value (plasma concentration, diabetes, 10 mg/kg p.o. once) of the same molecule?
A: β = 0.163, p = 0.017

Q: And the “AUC(0-24), times higher in rats with diabetes vs. controls” value (plasma, 10 mg/kg p.o. once)?
A: Over 3 times

Q: What about the “Vd, times lower in rats with diabetes vs. controls” value (plasma, 10 mg/kg p.o. once) of the same molecule?
A: over 7 times

Q: What about the “decline of the plasma concentration, rats with diabetes vs. controls” value (plasma, 10 mg/kg p.o. once) of the same molecule?
A: over one and half times faster decline

Q: What about the “systemic clearance, times lower in rats with diabetes vs. controls” value (plasma, 10 mg/kg p.o. once) of the same molecule?
A: over 4 times

Q: What about the “%Extrap” value [16] of the same molecule?
A: 1,90%

Q: What about the “ƛ (terminal slope)” value [16] of the same molecule?
A: −0.16

Q: What about the “Vd (volume of distribution)” value [16] of the same molecule?
A: 288.78 L

Q: What about the “Cl (clearance)” value [16] of the same molecule?
A: 46.20 L/h

Q: What about the “%Extrap” value [17] of the same molecule?
A: 7,40%

Q: And the “Vd (volume of distribution)” value [17]?
A: 2100.27 L

Q: And the “Cl (clearance)” value [17]?
A: 189.02 L/h

Q: What about the “β of linear regression Ln(Conc) vs time” value (urine concentration, controls, 10 mg/kg p.o. once) of the same molecule?
A: β = −0.074, p = 0.158

Q: And the “β of linear regression Ln(Conc) vs time” value (urine concentration, diabetes, 10 mg/kg p.o. once)?
A: β = −0.041, p = 0.455

Q: What about the “%Extrap” value [18] of the same molecule?
A: 196,30%

Q: What about the “ƛ (terminal slope)” value [18] of the same molecule?
A: −0.04

Q: And the “ƛ (terminal slope)” value [19]?
A: 0.07
